Results published in patent US20260042731A1, “(2,4-DICHLOROPHENOXY)ACETIC ACID ANALOGS” (CORTEVA AGRISCIENCE LLC, priority 2022, published 2026).
Read-outs that look alike come from different tables or passages of the source.

Experiments:
[1] = system: Amaranthus rudis (AMATA), tall water hemp; experiment: Postemergence herbicide evaluation, growth of Amaranthus rudis (AMATA); assay type: in vivo; conditions: Amaranthus tuberculatus, post-emergence, read-out: Ave. AMATA, percent reduction in plant size relative to the untreated control
[2] = system: Ambrosia artemisiifolia (AMBEL), common ragweed; experiment: Postemergence herbicide evaluation, growth of Ambrosia artemisiifolia (AMBEL); assay type: in vivo; conditions: Ambrosia artemisiifolia, post-emergence, read-out: AVE. AMBEL, percent reduction in plant size relative to the untreated control
[3] = system: Abutilon theophrasti (ABUTH), velvetleaf; experiment: Postemergence herbicide evaluation, growth of Abutilon theophrasti (ABUTH); assay type: in vivo; conditions: Abutilon theophrasti, post-emergence, read-out: AVE. ABUTH, percent reduction in plant size relative to the untreated control
[4] = system: Chenopodium album (CHEAL), common lambsquarters; experiment: Postemergence herbicide evaluation, growth of Chenopodium album (CHEAL); assay type: in vivo; conditions: Chenopodium album, post-emergence, read-out: Ave. CHEAL, percent reduction in plant size relative to the untreated control
[5] = system: glyphosate resistant Conyza canadensis (L.) (ERICA), horseweed; experiment: Postemergence herbicide evaluation, growth of Conyza canadensis (ERICA); assay type: in vivo; conditions: Erigeron canadensis, post-emergence, read-out: Ave. ERICA, percent reduction in plant size relative to the untreated control; for pest or weed control at 280 g/ha: 280 g ae/ha; for pest or weed control at 560 g/ha: 560 g ae/ha
[6] = Volatility of compounds measured by thermogravimetric analysis (TGA); assay type: physicochemical
[7] = system: weeds ABUTH, AMATA, AMBEL, CHEAL, ERICA; experiment: Postemergence herbicide evaluation, overall average % weed control (ABUTH, AMATA, AMBEL, CHEAL, ERICA); assay type: in vivo; conditions: post-emergence, read-out: Overall Ave % Weed Control

Compound `O=C(COc1ccc(Cl)cc1Cl)O/N=C1\CCCc2ccccc21` [Compound A25] has a pest or weed control at 280 g/ha ([1]; 168 h, 280 g ae/ha, 7 DAA) of 65%, a pest or weed control at 560 g/ha ([1]; 168 h, 560 g ae/ha, 7 DAA) of 57.5% and a pest or weed control at 280 g/ha ([1]; 336 h, 280 g ae/ha, 14 DAA) of 80%. It also gave a pest or weed control at 560 g/ha ([1]; 336 h, 560 g ae/ha, 14 DAA) of 82.5%, a pest or weed control at 280 g/ha ([1]; 504 h, 280 g ae/ha, 21 DAA) of 50% and a pest or weed control at 560 g/ha ([1]; 504 h, 560 g ae/ha, 21 DAA) of 64%. For the same compound, the pest or weed control at 280 g/ha ([2]; 168 h, 280 g ae/ha, 7 DAA) was 70%, the pest or weed control at 560 g/ha ([2]; 168 h, 560 g ae/ha, 7 DAA) was 80% and the pest or weed control at 280 g/ha ([2]; 336 h, 280 g ae/ha, 14 DAA) was 62.5%. The pest or weed control at 560 g/ha ([2]; 336 h, 560 g ae/ha, 14 DAA) was 67.5%, the pest or weed control at 280 g/ha ([2]; 504 h, 280 g ae/ha, 21 DAA) was 87.5% and the pest or weed control at 560 g/ha ([2]; 504 h, 560 g ae/ha, 21 DAA) was 82.5%. The pest or weed control at 280 g/ha ([3]; 168 h, 280 g ae/ha, 7 DAA) was 27.5%, the pest or weed control at 560 g/ha ([3]; 168 h, 560 g ae/ha, 7 DAA) was 30% and the pest or weed control at 280 g/ha ([3]; 336 h, 280 g ae/ha, 14 DAA) was 22.5%. For the same compound, the pest or weed control at 560 g/ha ([3]; 336 h, 560 g ae/ha, 14 DAA) was 27.5%, the pest or weed control at 280 g/ha ([3]; 504 h, 280 g ae/ha, 21 DAA) was 17.5% and the pest or weed control at 560 g/ha ([3]; 504 h, 560 g ae/ha, 21 DAA) was 30%. The pest or weed control at 280 g/ha ([4]; 168 h, 280 g ae/ha, 7 DAA) was 72.5%, the pest or weed control at 560 g/ha ([4]; 168 h, 560 g ae/ha, 7 DAA) was 72.5% and the pest or weed control at 280 g/ha ([4]; 336 h, 280 g ae/ha, 14 DAA) was 65%. It also gave a pest or weed control at 560 g/ha ([4]; 336 h, 560 g ae/ha, 14 DAA) of 92.5%, a pest or weed control at 280 g/ha ([4]; 504 h, 280 g ae/ha, 21 DAA) of 75% and a pest or weed control at 560 g/ha ([4]; 504 h, 560 g ae/ha, 21 DAA) of 75%. For the same compound, the pest or weed control at 280 g/ha ([5]; 168 h, 7 DAA) was 60%, the pest or weed control at 560 g/ha ([5]; 168 h, 7 DAA) was 72.5% and the pest or weed control at 280 g/ha ([5]; 336 h, 14 DAA) was 83.5%. For the same compound, the pest or weed control at 560 g/ha ([5]; 336 h, 14 DAA) was 77.5%, the pest or weed control at 280 g/ha ([5]; 504 h, 21 DAA) was 67.5% and the pest or weed control at 560 g/ha ([5]; 504 h, 21 DAA) was 99%. For the same compound, the “TGA Data (rate of weight loss, volatility)” value [6] was 0.8976 µg/min, the pest or weed control at 280 g/ha ([7]; 168 h, 280 g ae/ha, 7 DAA) was 59% and the pest or weed control at 560 g/ha ([7]; 168 h, 560 g ae/ha, 7 DAA) was 62.5%. For the same compound, the pest or weed control at 280 g/ha ([7]; 336 h, 280 g ae/ha, 14 DAA) was 62.7%, the pest or weed control at 560 g/ha ([7]; 336 h, 560 g ae/ha, 14 DAA) was 69.5% and the pest or weed control at 280 g/ha ([7]; 504 h, 280 g ae/ha, 21 DAA) was 59.5%. It also gave a pest or weed control at 560 g/ha ([7]; 504 h, 560 g ae/ha, 21 DAA) of 70.1%.
In the case of `O=C(COc1ccc(Cl)cc1Cl)OCCOCCOC(=O)COc1ccc(Cl)cc1Cl` [Compound B2, Oxybis(ethane-2,1-diyl) bis(2-(2,4-dichlorophenoxy)acetate)], the “TGA Data (rate of weight loss, volatility)” value [6] is reported as 0.04 µg/min, the pest or weed control at 280 g/ha ([7]; 168 h) is reported as 73% and the pest or weed control at 560 g/ha ([7]; 168 h) is reported as 75%. The pest or weed control at 280 g/ha ([7]; 336 h) was 83%, the pest or weed control at 560 g/ha ([7]; 336 h) was 89% and the pest or weed control at 560 g/ha ([7]; 504 h) was 94%.
In the case of `O=C(COc1ccc(Cl)cc1Cl)OCc1ccc(COC(=O)COc2ccc(Cl)cc2Cl)cc1` [Compound B1, 1,4-Phenylenebis(methylene) bis(2-(2,4-dichlorophenoxy)acetate)], the pest or weed control at 280 g/ha ([1]; 168 h) is reported as 40%, the pest or weed control at 560 g/ha ([1]; 168 h) is reported as 40% and the pest or weed control at 280 g/ha ([1]; 336 h) is reported as 25%. The pest or weed control at 560 g/ha ([1]; 336 h) was 35%, the pest or weed control at 280 g/ha ([1]; 504 h) was 30% and the pest or weed control at 560 g/ha ([1]; 504 h) was 48%. The pest or weed control at 280 g/ha ([2]; 168 h) was 23%, the pest or weed control at 560 g/ha ([2]; 168 h) was 20% and the pest or weed control at 280 g/ha ([2]; 336 h) was 18%. For the same compound, the pest or weed control at 560 g/ha ([2]; 336 h) was 18%, the pest or weed control at 280 g/ha ([2]; 504 h) was 0% and the pest or weed control at 560 g/ha ([2]; 504 h) was 5%. The pest or weed control at 280 g/ha ([3]; 168 h) was 5%, the pest or weed control at 560 g/ha ([3]; 168 h) was 13% and the pest or weed control at 280 g/ha ([3]; 336 h) was 8%. The pest or weed control at 560 g/ha ([3]; 336 h) was 5%, the pest or weed control at 280 g/ha ([3]; 504 h) was 8% and the pest or weed control at 560 g/ha ([3]; 504 h) was 3%. It also gave a pest or weed control at 280 g/ha ([4]; 168 h) of 15%, a pest or weed control at 560 g/ha ([4]; 168 h) of 55% and a pest or weed control at 280 g/ha ([4]; 336 h) of 25%. It also gave a pest or weed control at 560 g/ha ([4]; 336 h) of 53%, a pest or weed control at 280 g/ha ([4]; 504 h) of 20% and a pest or weed control at 560 g/ha ([4]; 504 h) of 33%. The “TGA Data (rate of weight loss, volatility)” value [6] was 0.03 µg/min, the pest or weed control at 280 g/ha ([7]; 168 h) was 19% and the pest or weed control at 560 g/ha ([7]; 168 h) was 31%. It also gave a pest or weed control at 280 g/ha ([7]; 336 h) of 21%, a pest or weed control at 560 g/ha ([7]; 336 h) of 29% and a pest or weed control at 280 g/ha ([7]; 504 h) of 13%. It also gave a pest or weed control at 560 g/ha ([7]; 504 h) of 21%.
